Patent US12545653B2, “Compound as PPAR agonist and application thereof” (USA Elixiria Biotech Inc., priority 2019, dated 2026)

How the values were obtained:
LN-229 cells = assay: Brain cancer model, LN-229 cells injected into the striatum, tumor volume; assay type: in vivo, mouse; details: mice with LN-229 cells in striatum, 5 mg/kg body weight/day
Method: The treatment lasted for a total of 30 days. The compounds was dissolved in DMSO and mixed into food pellets. The animals were given ad libitum access to the pellets. […] The difference is significant with P<0.05.

[1] = test system: rat model of hyperglycemia-induced nephropathy; assay: Hyperglycemia-induced nephropathy model (streptozotocin); assay type: in vivo; details: streptozotocin rats, 5 mg/kg body weight/day in food, 90 days
Method: The method was as follows:
Wild type Sprague-Dawley rats were used. The compounds was dissolved in DMSO and mixed into food pellets. The animals were given ad libitum access to the pellets. […] In addition, 3 days before compound treatment, the animal of group 2 to 4 were given a single intraperitoneal injection of streptozotocin, and 3 days later, blood glucose levels were measured from tail veins using a glucose meter. Animals with blood glucose levels above 500˜650 milligrams per deciliter were considered as hyperglycemia and were used for further study. No any side effect, or significant body weight changes, or significant dietary changes were found during the administration. After 90 days after initiation of treatment, blood pressure values were measured with the tail cuff system. The day before the kidneys were harvested, animals were placed in metabolic cages for 24 h for urine collection, and albumin to creatinine ratio (ACR) was measured. Animals were then fasted for 12 hours and sacrificed under anesthesia with a 10% chloral hydrate solution (0.3 g/kg). Serum samples were isolated and biochemical parameters were analyzed with by enzyme colorimetry in an automatic analyzer (Roche) to determine the FBG (fasting blood glucose) level (unit millimole/L). In addition, fasting insulin (FINS) levels, where the units are milliIU/L, were determined by enzyme-linked immunosorbent assay (ELISA) method with anti-rat insulin antibodies, and TNF-α was detected by rat tumor necrosis factor-α (TNF-α) ELISA kit (BD). […] The difference is significant with P<0.05.

[2] = test system: dIoN-CCI rat model of trigeminal neuropathic pain; assay: Trigeminal neuralgia model (dIoN-CCI), Von Frey mechanical threshold; details: dIoN-CCI rats

CCc1ccc(CC/C=C/c2ccc3c(c2)C(=O)CC3)cc1 [ELB00824, (E)-6-(4-(4-ethylphenyl)but-1-en-1-yl)-2,3-dihydro-1H-inden-1-one]
tumor volume at 30 days compared with disease control group (LN-229 cells): significant tumor volume reduction
blood TNF-α level compared with disease control group [1]: significant TNF-α level reduction
insulin resistance index ISI=ln (FBG*FINS) compared with disease control group [1]: significant ISI increase
urine albumin to creatinine ratio (ACR) compared with disease control group [1]: significant ACR reduction
duration of anti-allodynic effect (mechanical threshold 10 grams and above) ([2]; IP, 20 mg/kg body weight): 1.8 h
mechanical pain threshold after 1 hour of administration ([2]; IP, 20 mg/kg body weight): 12.8 ± 2.2 g
minimum effective anti-allodynic dose ([2]; oral): 3 mg/kg
mechanical threshold 2 hours after oral administration ([2]; oral 3 mg/kg body weight, Von Frey): 4.2 ± 0.8 g
duration of the anti-allodynic effect ([2]; oral 10 mg/kg): 2 h
mechanical pain threshold 2 hours after oral administration ([2]; oral 10 mg/kg body weight, Von Frey): 8.9 ± 2 g
duration of anti-allodynic effect (mechanical threshold 10 grams and above) ([2]; oral, 20 mg/kg body weight): 0.7 h
mechanical pain threshold after 1 hour of administration ([2]; oral, 20 mg/kg body weight): 6.8 ± 1.9 g
anti-allodynic property relative to pioglitazone ([2]; oral, from minimum effective doses): about 100 times
mechanical pain threshold after 1 hour of administration ([2]; transdermal cream containing 7% ELB00824, 20 mg/kg body weight): 19.8 ± 3.1 g
duration of anti-allodynic effect (mechanical threshold 10 grams and above) ([2]; transdermal, 20 mg/kg body weight): 2.3 h
